Experimental data as given in US9408393B2, “Bismuth-thiols as antiseptics for agricultural, industrial and other uses” (Microbion Corporation, priority 2010, dated 2016).

Legend:
[1] = tested on: Mycobacterium smegmatis; experiment: Single-point BisEDT-antibiotic combination FICI; type: cell-based; conditions: Msmeg 817
[2] = tested on: P. aeruginosa; experiment: Checkerboard broth microdilution MIC and FICI; type: cell-based, Pseudomonas aeruginosa; conditions: for MIC (μg/mL) Alone: compound alone
[3] = tested on: S. aureus strains; experiment: In vitro inhibition from PMMA cement bead vehicle; type: cell-based, Staphylococcus aureus; conditions: with and without Tobramicin and Vancomycin
[4] = tested on: S. aureus; experiment: Contaminated open fracture, rat femur critical defect model; type: in vivo; conditions: BT gel 5 mg/ml, 1 ml in defect, with Cefazolin 5 mgKg^−1 s.c. twice daily 3 days, day 14
Description: Standard errors of the mean are shown as error bars. Animals euthanized early are not excluded from the analysis, however samples from one animal in group 2 have been excluded due to gross contamination.
The aim of this study was to determine whether BTs will reduce infection in a contaminated open fracture model either on their own or with antibiotics. The contaminated rat femur critical defect model is a well-accepted model and was used for the experiments described in this Example. This model offers a standardized model for comparing various possible treatments and their effects on reducing infection and/or improving healing.
Three formulations of microparticulate BTs were produced in a clinically useful hydrogel gel form as described herein.
Two treatment arms were used: in the first arm, BT was used singularly; in the second arm BT was used in conjunction with a systemic antibiotic (ABx).
Six hours after inoculation with S. aureus, the wound was debrided, irrigated with saline and 1 ml of BT gel inserted within the defect.
Six hours after inoculation with S. aureus, the wound was debrided, irrigated with saline and 1 ml of BT gel added inserted within the defect. The antibiotic used was Cefazolin at a dose equivalent to 5 mgKg^−1 delivered via sub-cutaneous injection twice daily for a total of 3-days following the injury. The first dose was administered immediately prior to debridement.
Six hours after inoculation with S. aureus, the wound was debrided and irrigated with saline. The control animals were also treated with Cefazolin as per the regime described above.
The procedure for the in vivo rat injury model was performed as described by Chen et al. (2002 J. Orthop. Res. 20:142; 2005 J. Orthop. Res. 23:816; 2006 J. Bone Joint Surg. Am. 88:1510; 2007 J. Orthop. Trauma 21:693). The rats were anesthetized and prepped for surgery. The anterolateral aspect of the femoral shaft was exposed through a 3-cm incision. The periosteum and attached muscle was stripped from the bone. A polyacetyl plate (27×4×4 mm) was placed on the anterolateral surface of the femur. The plates were predrilled to accept 0.9-mm diameter threaded Kirschner wires. The bases of these plates were formed to fit the contour of the femoral shaft. Pilot holes were drilled through both cortices of the femur using the plate as a template and threaded Kirschner wire was inserted through the plate and femur. The notches that were 6 mm apart on the plate served as a guide for bone removal. A small oscillating saw was used to create the defect while the tissue was cooled by continuous irrigation in an effort to prevent thermal damage.
Several groups of 10 animals each were inoculated with 1×10^5 CFU of S. aureus and treated with BT alone or in combination with antibiotics 6 hours post-inoculation as described above. The groups were as follows: Bis-EDT gel; MB-11 gel; MB-8-2 gel; Bis-EDT gel & Abx; MB-11 gel & Abx; MB-8-2 gel & Abx; Control (Abx alone).
Animals were euthanized 14 days after surgery and bone and hardware sent for microbiological analysis, the results of which are shown in FIG. 7.

[5] = tested on: Gram-negative pathogenic bacteria; experiment: Checkerboard broth microdilution MIC and FICI; type: cell-based; conditions: for MIC (μg/mL) Alone: compound alone; for FICI, Fractional Inhibitory Concentration Index: in combination with Cefotaxime
Method: The effects of combinations of microparticulate Bis-EDT and four Bis-EDT analogs prepared as described above, and other agents against representative strains of several Gram-negative pathogenic bacteria were tested. A modification of a common laboratory method was used to determine synergism (FICI≦0.5), enhancement (0.5<FICI≦1.0), antagonism (FICI>4.0) and indifference (1.0<FICI≦4.0) used fractional inhibitory concentrations (FICs) and FIC indices (FICI) (Eliopoulos G and R Moellering. 1991. Antimicrobial combinations. In Antibiotics in Laboratory Medicine, Third Edition, edited by V Lorian. Williams and Wilkins, Baltimore, Md., pp. 432-492; Odds, 2003 J. Antimicrob. Chemother. 52(1):1). The checkerboard technique was used to determine FIC indices and was employed in this study.
Stock solutions of all test articles were prepared at 40× the final target concentration in the appropriate solvent. […] The final drug concentrations in the FIC assay plates were set to bracket the MIC value of each agent for each test organism, unless the strain was totally resistant to the test agent. […] The test organisms were originally received from clinical sources, or from the American Type Culture Collection. Upon receipt, the isolates were streaked onto Tryptic Soy Agar II (TSA). Colonies were harvested from these plates and a cell suspension was prepared in an appropriate broth growth medium containing cryoprotectant. Aliquots were then frozen at −80° C. The frozen seeds of the organisms to be tested in a given assay were thawed, streaked for isolation onto TSA plates, and incubated at 35° C. All organisms were tested in Mueller Hinton II Broth (Becton Dickinson, Lot No. 9044411). The broth was prepared at 1.05× normal weight/volume to offset the 5% volume of the drugs in the final test plates.
Minimal Inhibitory Concentration (MIC) values were previously determined using the broth microdilution method for aerobic bacteria (Clinical and Laboratory Standards Institute (CLSI). Methods for Dilution Antimicrobial Susceptibility Tests for Bacteria That Grow Aerobically; Approved Standard—Eighth Edition. CLSI document M07-A8 [ISBN 1-56238-689-1]. Clinical and Laboratory Standards Institute, 940 West Valley Road, Suite 1400, Wayne, Pa. 19087-1898 USA, 2009.).
FIC values were determined using a broth microdilution method previously described (Sweeney et al., 2003 Antimicrob. Agents Chemother. 47(6):1902-1906). To prepare the test plates, automated liquid handlers (Multidrop 384, Labsystems, Helsinki, Finland; Biomek 2000 and Multimek 96, Beckman Coulter, Fullerton Calif.) were used to conduct serial dilutions and liquid transfers.
The appropriate wells of standard 96-well microdilution plates (Falcon 3918) were filled with 150 μL of the appropriate solvent in columns 2-12 using the Multidrop 384. Three hundred microliters of each secondary test drug was added to each well in Column 1 of the plates. These plates were used to prepare the drug “mother plates” which provided the serial drug dilutions for the drug combination plates. The Biomek 2000 was used to transfer 150 μL of each secondary drug solution (40×) from the wells in Column 1 of the mother plate and to make eleven 2-fold serial dilutions. Mother plates of Bis-EDT (and analogs) were serial diluted top to bottom by hand, using a multichannel pipette. Two mother plates, one for each secondary drug and one for Bis-EDT (or analogs), were combined to form a “checkerboard” pattern by transfer of equal volumes (using a multi-channel pipette) to the drug combination plate. Row H and Column 12 each contained serial dilutions of one of the agents alone for determination of the MIC.
The “daughter plates” were loaded with 180 μL of test medium using the Multidrop 384. Then, the Multimek 96 was used to transfer 10 μL of drug solution from each well of the drug combination mother plate to each corresponding well of the daughter plate in a single step.

[6] = P. aeruginosa 103, in combination with Cefepime
[7] = P. aeruginosa 103, in combination with Cefotaxime
[8] = P. aeruginosa 1381, in combination with Cefepime
[9] = P. aeruginosa 1384, in combination with Cefepime
[10] = P. aeruginosa 1474, in combination with Cefepime
[11] = P. aeruginosa 1479, in combination with Cefepime
[12] = P. aeruginosa 2566, in combination with Cefepime
[13] = P. aeruginosa 2568, in combination with Cefepime

| Compound | FICI, single-point BisEDT-antibiotic combination [1] | MIC (μg/mL) Alone ([2]; P. aeruginosa 103) [µg/mL] | FICI, Fractional Inhibitory Concentration Index [2, 6] | FICI, Fractional Inhibitory Concentration Index [2, 7] | MIC (μg/mL) Alone ([2]; P. aeruginosa 1381) [µg/mL] | FICI, Fractional Inhibitory Concentration Index [2, 8] | MIC (μg/mL) Alone ([2]; P. aeruginosa 1384) [µg/mL] | FICI, Fractional Inhibitory Concentration Index [2, 9] | MIC (μg/mL) Alone ([2]; P. aeruginosa 1474) [µg/mL] | FICI, Fractional Inhibitory Concentration Index [2, 10] | MIC (μg/mL) Alone ([2]; P. aeruginosa 1479) [µg/mL] | FICI, Fractional Inhibitory Concentration Index [2, 11] | MIC (μg/mL) Alone ([2]; P. aeruginosa 2566) [µg/mL] | FICI, Fractional Inhibitory Concentration Index [2, 12] | MIC (μg/mL) Alone ([2]; P. aeruginosa 2568) [µg/mL] | FICI, Fractional Inhibitory Concentration Index [2, 13] | Effect on S. aureus strains in vitro from PMMA cement beads [3] | S. aureus infection detected on hardware, effect on Cefazolin activity [4] | S. aureus infection of injured bone, effect on Cefazolin activity [4] | MIC (μg/mL) Alone ([5]; K. pneumoniae 1346) [µg/mL] | also measured |
| --- | --- | --- | --- | --- | --- | --- | --- | --- | --- | --- | --- | --- | --- | --- | --- | --- | --- | --- | --- | --- | --- |
| NNC(=O)c1ccncc1 [Isoniazid] | 0.88 | – | – | – | – | – | – | – | – | – | – | – | – | – | – | – | – | – | – | – | – |
| Capreomycin | 0.75 | – | – | – | – | – | – | – | – | – | – | – | – | – | – | – | – | – | – | – | – |
| bismuth pyrithione/butanedithiol [MB-8-2] | – | 2 | 1.11 | 1.11 | 2 | 1.23 | 2 | 0.80 | 2 | 1.11 | 2 | 1.23 | 2 | 1.23 | 2 | 0.98 | inhibitory effects | enhanced antibiotic activity | enhanced | 0.5 | FICI, Fractional Inhibitory Concentration Index ([5]; K. pneumoniae 1346): 1.37; MIC (μg/mL) Alone ([5]; K. pneumoniae 1355): 0.5 µg/mL; FICI, Fractional Inhibitory Concentration Index ([5]; K. pneumoniae 1355): 1.37; MIC (μg/mL) Alone ([5]; K. pneumoniae 2238): 0.5 µg/mL; FICI, Fractional Inhibitory Concentration Index ([5]; K. pneumoniae 2238): 1.37; MIC (μg/mL) Alone ([5]; K. pneumoniae 2541): 1 µg/mL; FICI, Fractional Inhibitory Concentration Index ([5]; K. pneumoniae 2541): 1.12; MIC (μg/mL) Alone ([5]; K. pneumoniae 2546): 1 µg/mL; MIC (μg/mL) Alone ([5]; K. pneumoniae 2549): 1 µg/mL; FICI, Fractional Inhibitory Concentration Index ([5]; K. pneumoniae 2549): 1.12 |
| bismuth pyrithione/ethanedithiol [MB-11] | – | 1 | 0.12 | 1.12 | 1 | 1.12 | 1 | 1.12 | 0.5 | 1.12 | 0.5 | 0.87 | 0.5 | 0.93 | 0.5 | 0.87 | inhibitory effects | enhanced antibiotic activity | enhanced | 0.5 | FICI, Fractional Inhibitory Concentration Index ([5]; K. pneumoniae 1346): 1.37; MIC (μg/mL) Alone ([5]; K. pneumoniae 1355): 0.5 µg/mL; FICI, Fractional Inhibitory Concentration Index ([5]; K. pneumoniae 1355): 1.87; MIC (μg/mL) Alone ([5]; K. pneumoniae 2238): 0.5 µg/mL; FICI, Fractional Inhibitory Concentration Index ([5]; K. pneumoniae 2238): 1.37; MIC (μg/mL) Alone ([5]; K. pneumoniae 2541): 0.5 µg/mL; FICI, Fractional Inhibitory Concentration Index ([5]; K. pneumoniae 2541): 0.73; MIC (μg/mL) Alone ([5]; K. pneumoniae 2546): 0.5 µg/mL; FICI, Fractional Inhibitory Concentration Index ([5]; K. pneumoniae 2546): 1.37; MIC (μg/mL) Alone ([5]; K. pneumoniae 2549): 0.5 µg/mL; FICI, Fractional Inhibitory Concentration Index ([5]; K. pneumoniae 2549): 1.37 |
